In US20090305225A1, “Inhibition of Creatine Uptake to Promote Weight Loss” (priority 2005, published 2009):

Experiments:
[1] = tested on: creatine transporter mRNA; experiment: In situ hybridization of creatine transporter mRNA in rat brain; type: in vivo; details: 48 hours after icv 0.4 um/kg; arcuate, dorsomedial, ventromedial, third ventricle, paraventricular thalamic, habenular areas; FIG. 6
Text: At least 3 rats per group were used for each individual probe. Brains were dissected as described above and were cut vertically to remove the anterior portion at the optic chiasm and the posterior portion at the interpeduncular fossa so that the remaining blocks included the whole hypothalamus with a small additional margin of adjacent tissue. The blocks were immediately frozen on foil on dry ice, then stored at −80 degrees C. Blocks were sectioned in a cryostat (Micron HM500O) at −20 degrees C. and at a thickness of 13 microns. The slides were fixed in 4% paraformaldehyde for 5 minutes and acetylated in 1.3% triethanolamine and 0.5% acetic anhydride, pH 8.0 for 5 minutes. […] After air drying, the slides were ready to use.
For preparation of radiolabeled riboprobes, the DNA fragments containing the creatine transporter insert and a T7 or SP6 phage promoter sequence in each side were produced from cloning vectors (pCRII-TOPO, Invitrogene; PCR-TRAP, GenHunter) either by restriction endonuclease digestion or by PCR amplification. […] The cpm value was determined by counting in a liquid scintillation spectrometer. […]
For dipping and developing in situ slides, Kodak NTB-2 emulsion was diluted (1:1) using ddH2O and warmed to 40 degrees C. in a dark room. […] Slides were observed under dark-field microscopy (Olympus, Tokyo, Japan) and silver grains in regions of interest were assessed. […]

[2] = tested on: hypothalamic creatine and phosphocreatine; experiment: Creatine assay (HPLC) of hypothalamic blocks; type: in vivo, rat; details: 48 hours after 0.4 um/kg
Experimental: Hypothalamic blocks were rapidly dissected from animals treated icv with vehicle or CoPP at the indicated doses and snap-frozen in liquid nitrogen. They were stored at -80 degrees C. until they were crushed into a powder under liquid nitrogen and homogenized in 0.5 M PCA. Samples were then centrifuged at 4 degrees C. for 10 minutes at 15,000×g and the resulting supernatant neutralized with 1 M KOH. HPLC analysis was performed essentially as described. Samples were injected onto a Partisil 10 SAX analytical column which was eluted […] starting with Buffer A (0.01M H2PO4) and changing to Buffer B ([…]). The column was run on a Waters HPLC equipped with a Waters 996 Photodiode Array Detector and a Waters 717+ Auto Sampler. Both creatine and phosphocreatine standards were run with each sample set. Results are expressed as nanomoles per mg wet weight.

## C=Cc1c(C)c2cc3[nH]c(cc4nc(cc5nc(cc1[nH]2)C(C)=C5CCC(=O)[O-])C(CCC(=O)[O-])=C4C)c(C)c3C=C.[Co+2] [CoPP, Cobaltic protoporphyrin IX]
[1]
  CrT mRNA in situ hybridization compared to control: increased
[2]; failed to meet statistical significance
  decrease in hypothalamic phosphocreatine concentrations: about 40%
[2]; versus vehicle-treated or fasted rats, p=0.008
  decrease in hypothalamic creatine concentrations: about 20%
